Key:
Experiment in all cases: post-emergence herbicidal activity, greenhouse
Assay type in all cases: in vivo
Soybean = conditions: Table II
How it was run: (§1)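 Plants grown from seed or perennial propagules in greenhouse soil pans were sprayed at two to three weeks with compound solution or suspension containing about 0.4% emulsifier, at the stated application rates. Injury relative to untreated controls was scored at approximately two and four weeks after treatment on a post-emergence activity index.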

Morningglory = system: Morningglory
How it was run: as §1

Rice = conditions: Table II
How it was run: as §1

Sugar Beet = conditions: Table II
How it was run: as §1

Panicum Spp = conditions: Table II
How it was run: as §1

Velvetleaf = system: Velvetleaf
How it was run: as §1

Wild Buckwheat = conditions: Table II
How it was run: as §1

Sorghum = conditions: Table II
How it was run: as §1

Yellow Nutsedge = conditions: Table I, 4 WAT
How it was run: as §1

Hemp Sesbania = conditions: Table II
How it was run: as §1

Wheat = conditions: Table II
How it was run: as §1

Canada Thistle = conditions: Table I, 4 WAT
How it was run: as §1

Cocklebur = system: Cocklebur
How it was run: as §1

Downy Brome = system: Downy Brome
How it was run: as §1

Quackgrass = conditions: Table I, 4 WAT
How it was run: as §1

Crabgrass = conditions: Table II
How it was run: as §1

Lambsquarters = system: Lambsquarters
How it was run: as §1

Barnyardgrass = system: Barnyardgrass
How it was run: as §1

Johnsongrass = conditions: Table I, 4 WAT
How it was run: as §1

Smartweed = conditions: Table I, 4 WAT
How it was run: as §1

## CSSN(CC#N)CP(=O)(Oc1ccccc1)Oc1ccccc1 [VII]
Soybean; 2 WAT, 0.056 kg/h
  post-emergence herbicidal activity index: 0 (0-24% control)
Soybean; 2 WAT, 0.28 kg/h
  post-emergence herbicidal activity index: 0 (0-24% control)
Soybean; 2 WAT, 1.12 kg/h
  post-emergence herbicidal activity index: 1 (25-49% control)
Soybean; 2 WAT, 5.6 kg/h
  post-emergence herbicidal activity index: 2 (50-74% control)
Soybean; 4 WAT, 1.12 kg/h
  post-emergence herbicidal activity index: 1 (25-49% control)
Soybean; 4 WAT, 5.6 kg/h
  post-emergence herbicidal activity index: 2 (50-74% control)
Morningglory; Table I, 4 WAT, 5.6 kg/h
  post-emergence herbicidal activity index: 2 (50-74% control)
Morningglory; Table I, 4 WAT, 11.2 kg/h
  post-emergence herbicidal activity index: 2 (50-74% control)
Morningglory; Table II, 2 WAT, 0.056 kg/h
  post-emergence herbicidal activity index: 0 (0-24% control)
Morningglory; Table II, 2 WAT, 0.28 kg/h
  post-emergence herbicidal activity index: 1 (25-49% control)
Morningglory; Table II, 2 WAT, 1.12 kg/h
  post-emergence herbicidal activity index: 1 (25-49% control)
Morningglory; Table II, 2 WAT, 5.6 kg/h
  post-emergence herbicidal activity index: 2 (50-74% control)
Morningglory; Table II, 4 WAT, 1.12 kg/h
  post-emergence herbicidal activity index: 0 (0-24% control)
Morningglory; Table II, 4 WAT, 5.6 kg/h
  post-emergence herbicidal activity index: 2 (50-74% control)
Rice; 2 WAT, 0.056 kg/h
  post-emergence herbicidal activity index: 0 (0-24% control)
Rice; 2 WAT, 0.28 kg/h
  post-emergence herbicidal activity index: 0 (0-24% control)
Rice; 2 WAT, 1.12 kg/h
  post-emergence herbicidal activity index: 0 (0-24% control)
Rice; 2 WAT, 5.6 kg/h
  post-emergence herbicidal activity index: 3 (75-99% control)
Rice; 4 WAT, 1.12 kg/h
  post-emergence herbicidal activity index: 0 (0-24% control)
Rice; 4 WAT, 5.6 kg/h
  post-emergence herbicidal activity index: 3 (75-99% control)
Sugar Beet; 2 WAT, 0.056 kg/h
  post-emergence herbicidal activity index: 0 (0-24% control)
Sugar Beet; 2 WAT, 0.28 kg/h
  post-emergence herbicidal activity index: 0 (0-24% control)
Sugar Beet; 2 WAT, 1.12 kg/h
  post-emergence herbicidal activity index: 0 (0-24% control)
Sugar Beet; 2 WAT, 5.6 kg/h
  post-emergence herbicidal activity index: 1 (25-49% control)
Sugar Beet; 4 WAT, 1.12 kg/h
  post-emergence herbicidal activity index: 0 (0-24% control)
Sugar Beet; 4 WAT, 5.6 kg/h
  post-emergence herbicidal activity index: 1 (25-49% control)
Panicum Spp; 2 WAT, 0.056 kg/h
  post-emergence herbicidal activity index: 0 (0-24% control)
Panicum Spp; 2 WAT, 0.28 kg/h
  post-emergence herbicidal activity index: 0 (0-24% control)
Panicum Spp; 2 WAT, 1.12 kg/h
  post-emergence herbicidal activity index: 0 (0-24% control)
Panicum Spp; 2 WAT, 5.6 kg/h
  post-emergence herbicidal activity index: 1 (25-49% control)
Panicum Spp; 4 WAT, 1.12 kg/h
  post-emergence herbicidal activity index: 0 (0-24% control)
Panicum Spp; 4 WAT, 5.6 kg/h
  post-emergence herbicidal activity index: 2 (50-74% control)
Velvetleaf; Table I, 4 WAT, 5.6 kg/h
  post-emergence herbicidal activity index: 1 (25-49% control)
Velvetleaf; Table I, 4 WAT, 11.2 kg/h
  post-emergence herbicidal activity index: 1 (25-49% control)
Velvetleaf; Table II, 2 WAT, 0.056 kg/h
  post-emergence herbicidal activity index: 0 (0-24% control)
Velvetleaf; Table II, 2 WAT, 0.28 kg/h
  post-emergence herbicidal activity index: 0 (0-24% control)
Velvetleaf; Table II, 2 WAT, 1.12 kg/h
  post-emergence herbicidal activity index: 1 (25-49% control)
Velvetleaf; Table II, 2 WAT, 5.6 kg/h
  post-emergence herbicidal activity index: 2 (50-74% control)
Velvetleaf; Table II, 4 WAT, 1.12 kg/h
  post-emergence herbicidal activity index: 0 (0-24% control)
Velvetleaf; Table II, 4 WAT, 5.6 kg/h
  post-emergence herbicidal activity index: 2 (50-74% control)
Wild Buckwheat; 2 WAT, 0.056 kg/h
  post-emergence herbicidal activity index: 0 (0-24% control)
Wild Buckwheat; 2 WAT, 0.28 kg/h
  post-emergence herbicidal activity index: 1 (25-49% control)
Wild Buckwheat; 2 WAT, 1.12 kg/h
  post-emergence herbicidal activity index: 0 (0-24% control)
Wild Buckwheat; 2 WAT, 5.6 kg/h
  post-emergence herbicidal activity index: 2 (50-74% control)
Wild Buckwheat; 4 WAT, 1.12 kg/h
  post-emergence herbicidal activity index: 0 (0-24% control)
Wild Buckwheat; 4 WAT, 5.6 kg/h
  post-emergence herbicidal activity index: 3 (75-99% control)
Sorghum; 2 WAT, 0.056 kg/h
  post-emergence herbicidal activity index: 0 (0-24% control)
Sorghum; 2 WAT, 0.28 kg/h
  post-emergence herbicidal activity index: 1 (25-49% control)
Sorghum; 2 WAT, 1.12 kg/h
  post-emergence herbicidal activity index: 1 (25-49% control)
Sorghum; 2 WAT, 5.6 kg/h
  post-emergence herbicidal activity index: 2 (50-74% control)
Sorghum; 4 WAT, 1.12 kg/h
  post-emergence herbicidal activity index: 2 (50-74% control)
Sorghum; 4 WAT, 5.6 kg/h
  post-emergence herbicidal activity index: 3 (75-99% control)
Yellow Nutsedge; 5.6 kg/h
  post-emergence herbicidal activity index: 2 (50-74% control)
Yellow Nutsedge; 11.2 kg/h
  post-emergence herbicidal activity index: 2 (50-74% control)
Hemp Sesbania; 2 WAT, 0.056 kg/h
  post-emergence herbicidal activity index: 0 (0-24% control)
Hemp Sesbania; 2 WAT, 0.28 kg/h
  post-emergence herbicidal activity index: 0 (0-24% control)
Hemp Sesbania; 2 WAT, 1.12 kg/h
  post-emergence herbicidal activity index: 0 (0-24% control)
Hemp Sesbania; 2 WAT, 5.6 kg/h
  post-emergence herbicidal activity index: 1 (25-49% control)
Hemp Sesbania; 4 WAT, 1.12 kg/h
  post-emergence herbicidal activity index: 0 (0-24% control)
Hemp Sesbania; 4 WAT, 5.6 kg/h
  post-emergence herbicidal activity index: 1 (25-49% control)
Wheat; 2 WAT, 0.056 kg/h
  post-emergence herbicidal activity index: 0 (0-24% control)
Wheat; 2 WAT, 0.28 kg/h
  post-emergence herbicidal activity index: 1 (25-49% control)
Wheat; 2 WAT, 1.12 kg/h
  post-emergence herbicidal activity index: 1 (25-49% control)
Wheat; 2 WAT, 5.6 kg/h
  post-emergence herbicidal activity index: 2 (50-74% control)
Wheat; 4 WAT, 1.12 kg/h
  post-emergence herbicidal activity index: 0 (0-24% control)
Wheat; 4 WAT, 5.6 kg/h
  post-emergence herbicidal activity index: 3 (75-99% control)
Canada Thistle; 5.6 kg/h
  post-emergence herbicidal activity index: 4 (100% control)
Canada Thistle; 11.2 kg/h
  post-emergence herbicidal activity index: 4 (100% control)
Cocklebur; Table I, 4 WAT, 5.6 kg/h
  post-emergence herbicidal activity index: 2 (50-74% control)
Cocklebur; Table I, 4 WAT, 11.2 kg/h
  post-emergence herbicidal activity index: 3 (75-99% control)
Cocklebur; Table II, 2 WAT, 0.056 kg/h
  post-emergence herbicidal activity index: 0 (0-24% control)
Cocklebur; Table II, 2 WAT, 0.28 kg/h
  post-emergence herbicidal activity index: 1 (25-49% control)
Cocklebur; Table II, 2 WAT, 1.12 kg/h
  post-emergence herbicidal activity index: 1 (25-49% control)
Cocklebur; Table II, 2 WAT, 5.6 kg/h
  post-emergence herbicidal activity index: 2 (50-74% control)
Cocklebur; Table II, 4 WAT, 1.12 kg/h
  post-emergence herbicidal activity index: 1 (25-49% control)
Cocklebur; Table II, 4 WAT, 5.6 kg/h
  post-emergence herbicidal activity index: 3 (75-99% control)
Downy Brome; Table I, 4 WAT, 5.6 kg/h
  post-emergence herbicidal activity index: 3 (75-99% control)
Downy Brome; Table I, 4 WAT, 11.2 kg/h
  post-emergence herbicidal activity index: 2 (50-74% control)
Downy Brome; Table II, 2 WAT, 0.056 kg/h
  post-emergence herbicidal activity index: 0 (0-24% control)
Downy Brome; Table II, 2 WAT, 0.28 kg/h
  post-emergence herbicidal activity index: 0 (0-24% control)
Downy Brome; Table II, 2 WAT, 1.12 kg/h
  post-emergence herbicidal activity index: 1 (25-49% control)
Downy Brome; Table II, 2 WAT, 5.6 kg/h
  post-emergence herbicidal activity index: 1 (25-49% control)
Downy Brome; Table II, 4 WAT, 1.12 kg/h
  post-emergence herbicidal activity index: 0 (0-24% control)
Downy Brome; Table II, 4 WAT, 5.6 kg/h
  post-emergence herbicidal activity index: 1 (25-49% control)
Quackgrass; 5.6 kg/h
  post-emergence herbicidal activity index: 2 (50-74% control)
Quackgrass; 11.2 kg/h
  post-emergence herbicidal activity index: 1 (25-49% control)
Crabgrass; 2 WAT, 0.056 kg/h
  post-emergence herbicidal activity index: 0 (0-24% control)
Crabgrass; 2 WAT, 0.28 kg/h
  post-emergence herbicidal activity index: 1 (25-49% control)
Crabgrass; 2 WAT, 1.12 kg/h
  post-emergence herbicidal activity index: 3 (75-99% control)
Crabgrass; 2 WAT, 5.6 kg/h
  post-emergence herbicidal activity index: 4 (100% control)
Crabgrass; 4 WAT, 1.12 kg/h
  post-emergence herbicidal activity index: 3 (75-99% control)
Crabgrass; 4 WAT, 5.6 kg/h
  post-emergence herbicidal activity index: 4 (100% control)
Lambsquarters; Table I, 4 WAT, 5.6 kg/h
  post-emergence herbicidal activity index: 3 (75-99% control)
Lambsquarters; Table I, 4 WAT, 11.2 kg/h
  post-emergence herbicidal activity index: 4 (100% control)
Lambsquarters; Table II, 2 WAT, 0.056 kg/h
  post-emergence herbicidal activity index: 0 (0-24% control)
Lambsquarters; Table II, 2 WAT, 0.28 kg/h
  post-emergence herbicidal activity index: 1 (25-49% control)
Lambsquarters; Table II, 2 WAT, 1.12 kg/h
  post-emergence herbicidal activity index: 1 (25-49% control)
Lambsquarters; Table II, 2 WAT, 5.6 kg/h
  post-emergence herbicidal activity index: 3 (75-99% control)
Lambsquarters; Table II, 4 WAT, 1.12 kg/h
  post-emergence herbicidal activity index: 0 (0-24% control)
Lambsquarters; Table II, 4 WAT, 5.6 kg/h
  post-emergence herbicidal activity index: 4 (100% control)
Barnyardgrass; Table I, 4 WAT, 5.6 kg/h
  post-emergence herbicidal activity index: 2 (50-74% control)
Barnyardgrass; Table I, 4 WAT, 11.2 kg/h
  post-emergence herbicidal activity index: 3 (75-99% control)
Barnyardgrass; Table II, 2 WAT, 0.056 kg/h
  post-emergence herbicidal activity index: 0 (0-24% control)
Barnyardgrass; Table II, 2 WAT, 0.28 kg/h
  post-emergence herbicidal activity index: 0 (0-24% control)
Barnyardgrass; Table II, 2 WAT, 1.12 kg/h
  post-emergence herbicidal activity index: 1 (25-49% control)
Barnyardgrass; Table II, 2 WAT, 5.6 kg/h
  post-emergence herbicidal activity index: 3 (75-99% control)
Barnyardgrass; Table II, 4 WAT, 1.12 kg/h
  post-emergence herbicidal activity index: 1 (25-49% control)
Barnyardgrass; Table II, 4 WAT, 5.6 kg/h
  post-emergence herbicidal activity index: 3 (75-99% control)
Johnsongrass; 5.6 kg/h
  post-emergence herbicidal activity index: 3 (75-99% control)
Johnsongrass; 11.2 kg/h
  post-emergence herbicidal activity index: 4 (100% control)
Smartweed; 5.6 kg/h
  post-emergence herbicidal activity index: 2 (50-74% control)
Smartweed; 11.2 kg/h
  post-emergence herbicidal activity index: 4 (100% control)
